Reference: patent US20240101548A1, “HYDROXAMATE COMPOUND, PREPARATION METHOD THEREFOR AND APPLICATION THEREOF” (SHENZHEN CHIPSCREEN BIOSCIENCES CO., LTD., priority 2020, published 2024)
Read-outs that look alike come from different tables or passages of the source.

How the values were obtained:
Assay type in all cases: cell-based, human
[1] = test system: EPO-induced JAK2 signal pathway; assay: EPO-induced proliferation of UT-7 cells (JAK2 signal); conditions: UT-7 cell proliferation, EPO 10 ng/mL, 72 hours, read-out: Inhibition activity IC50 on EPO-induced JAK2 signal pathway
Procedure, shortened: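 UT-7 cells (15000/well) stimulated with 10 ng/mL human recombinant EPO plus compound at final 0, 100, 1000 or 10000 nM, 72 h at 37° C., 5% CO2. Proliferation by alamarBlue fluorescence (Ex530/Em590); inhibition normalised to no-cytokine/no-compound (0) and EPO-only (100) wells, […] derived from dose-inhibition.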

[2] = test system: IL-10-induced JAK1/TYK2 signal pathway; assay: IL-10-induced JAK1/TYK2 signal pathway STAT3-Luc reporter gene assay in U2OS cells; conditions: U2OS cells, STAT3-Luc reporter, IL-10 10 ng/mL, read-out: Half inhibition dose (IC50) on IL-10-induced JAK1/TYK2 signal pathway
Procedure, shortened: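 U2OS cells co-transfected with IL-10R1-EGFP and STAT3-luciferase reporter plasmids; after 24 h, compound added (0–300 nM) for 6 h before 10 ng/mL human IL-10, then 24 h culture. Luciferase signal normalised to GFP for transfection efficiency; IC50 from inhibition rates.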

[3] = test system: IL-2-induced JAK1/JAK3 signal pathway; assay: IL-2-induced proliferation of KHYG-1 cells (JAK1/JAK3 signal); conditions: KHYG-1 cell proliferation, IL-2 10 ng/mL, 72 hours, read-out: Inhibition activity IC50 on IL-2-induced JAK1/JAK3 signal pathway
Procedure, shortened: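 KHYG-1 NK lymphoma cells were cultured with IL-2 and test compound at various doses for 72 h at 37 °C and 5% CO2, and proliferation was read with alamarBlue fluorescence. Inhibition was normalized to wells without compound or cytokine (0%) and IL-2 wells without compound (100%), and C50 was derived from the dose-inhibition data.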

| Compound | IC50 ([2]; Homo sapiens, U2OS) | IC50 [2] | IC50 ([1]; Homo sapiens, UT7) | IC50 ([3]; Homo sapiens) | IC50 ([2]; Homo sapiens) | IC50 [1] | IC50 [3] |
| --- | --- | --- | --- | --- | --- | --- | --- |
| CCONC(=O)c1cnc(Nc2cc(C)nc(C)n2)cc1Nc1ccc(OC)cc1N(C)S(=O)(=O)C1CC1 [Example 174, 6-((2,6-dimethylpyrimidin-4-yl)amino)-N-ethoxy-4-((4-methoxy-2-(N-methylcyclopropylsulfonamido)phenyl)amino)nicotinamide] | 0.000784 µM |  | > 10 µM | > 10 µM |  |  |  |
| CCONC(=O)c1cnc(Nc2ccnc(OC)n2)cc1Nc1ccc(C2CC2)cc1N(C)S(C)(=O)=O [Example 179, 4-((4-cyclopropyl-2-(N-methylmethanesulfonamido)phenyl)amino)-N-ethoxy-6-((2-methoxypyrimidin-4-yl)amino)nicotinamide] | 0.00131 µM |  | > 10 µM | > 10 µM |  |  |  |
| CCONC(=O)c1cnc(Nc2cc(C)nc(C)n2)cc1Nc1ccc(CC)cc1N(C)S(C)(=O)=O [Example 180] |  |  | > 10 µM | > 10 µM | 0.00113 µM |  |  |
| CCONC(=O)c1cnc(Nc2cc(C)nc(C)n2)cc1Nc1ccc(F)cc1N(C)S(=O)(=O)C1CC1 [Example 183] | 0.000796 µM |  | > 10 µM | > 10 µM |  |  |  |
| CCONC(=O)c1cnc(Nc2cc(C)nc(C)n2)cc1Nc1ccc(C2CC2)cc1N(C)S(=O)(=O)CC [Example 185] | 0.000821 µM |  | > 10 µM | > 10 µM |  |  |  |
| CCONC(=O)c1cnc(Nc2cc(C)nc(C)n2)cc1Nc1ccc(Cl)cc1N(C)S(=O)(=O)CC [Example 187, 4-((4-chloro-2-(N-methylethylsulfonamido)phenyl)amino)-6-((2,6-dimethylpyrimidin-4-yl)amino)-N-ethoxynicotinamide] | 0.000906 µM |  | > 10 µM | > 10 µM |  |  |  |
| CCONC(=O)c1cnc(Nc2ccnc(OC)n2)cc1Nc1cc(F)c(C2CC2)cc1N(C)S(C)(=O)=O [Example 188, 4-((4-cyclopropyl-5-fluoro-2-(N-methylmethanesulfonamido)phenyl)amino)-N-ethoxy-6-((2-methoxypyrimidin-4-yl)amino)nicotinamide] | 0.00127 µM |  | > 10 µM | > 10 µM |  |  |  |
| CCONC(=O)c1cnc(Nc2cc(C)nc(C)n2)cc1Nc1ccc(C2CC2)cc1N(C)S(=O)(=O)C1CC1 [Example 189] | 0.000825 µM |  | > 10 µM | > 10 µM |  |  |  |
| CCONC(=O)c1cnc(Nc2ccncn2)cc1Nc1ccc(C2CC2)cc1N(C)S(=O)(=O)C1CC1 [Example 190, 4-((4-cyclopropyl-2-(N-methylcyclopropylsulfonamido)phenyl)amino)-N-ethoxy-6-(pyrimidin-4-ylamino)nicotinamide] | 0.00273 µM |  | > 10 µM | > 10 µM |  |  |  |
| CCONC(=O)c1cnc(Nc2cc(C)nc(C)n2)cc1Nc1cc(F)c(C)cc1N(C)S(C)(=O)=O [Example 191, 6-((2,6-dimethylpyrimidin-4-yl)amino)-N-ethoxy-4-((5-fluoro-4-methyl-2-(N-methylmethanesulfonamido)phenyl)amino)nicotinamide] | 0.000653 µM |  | > 10 µM | > 10 µM |  |  |  |
| CCONC(=O)c1cnc(Nc2cc(C)nc(C)n2)cc1Nc1ccc(C)c(F)c1N(C)S(C)(=O)=O [Example 197] | 0.000731 µM |  | > 10 µM | > 10 µM |  |  |  |
| CCONC(=O)c1cnc(NC(=O)C2CC2)cc1Nc1cccc(-c2ncc(F)cn2)c1OC [Example 209, 6-(cyclopropylcarboxamido)-N-ethoxy-4-((3-(5-fluoropyrimidin-2-yl)-2-methoxyphenyl)amino)nicotinamide] | 0.00178 µM |  | > 10 µM | > 10 µM |  |  |  |
| CCONC(=O)c1cnc(NC(=O)C2CC2)cc1Nc1cc(F)cc(-c2ncc(F)cn2)c1OC [Example 210, 6-(cyclopropylcarboxamido)-N-ethoxy-4-((5-fluoro-3-(5-fluoropyrimidin-2-yl)-2-methoxyphenyl)amino)nicotinamide] | 0.000958 µM |  | > 10 µM | > 10 µM |  |  |  |
| CCONC(=O)c1cnc(Nc2cccc(C)n2)cc1Nc1ccc(C2CC2)cc1N(C)S(C)(=O)=O [Example 217, 4-((4-cyclopropyl-2-(N-methylmethanesulfonamido)phenyl)amino)-N-ethoxy-6-((6-methylpyridin-2-yl)amino)nicotinamide] |  | 0.00105 µM |  |  |  | > 10 µM | > 10 µM |
| CCONC(=O)c1cnc(Nc2cc(C)nc(C)n2)cc1Nc1cccc(-c2ncc(Cl)cn2)c1OC [Example 218, 4-((3-(5-chloropyrimidin-2-yl)-2-methoxyphenyl)amino)-6-((2,6-dimethylpyrimidin-4-yl)amino)-N-ethoxy nicotinamide] |  |  | > 10 µM | > 10 µM | 0.000171 µM |  |  |
| CCONC(=O)c1cnc(Nc2cccc(C)n2)cc1Nc1ccc(-c2ccnn2C)cc1OC [Example 222, N-ethoxy-4-((2-methoxy-4-(1-methyl-1H-pyrazol-5-yl)phenyl)amino)-6-((6-methylpyridin-2-yl)amino)nicotinamide] | 0.00109 µM |  | > 10 µM | > 10 µM |  |  |  |
| CCONC(=O)c1cnc(Nc2cccc(C)n2)cc1Nc1ccc(C2CC2)cc1N(C)S(C)(=O)=O [Example 224, 4-((4-cyclopropyl-2-(N-methylmethanesulfonamido)phenyl)amino)-N-ethoxy-6-((6-methylpyridin-2-yl)amino)nicotinamide] |  | 0.000177 µM |  |  |  | > 10 µM | > 10 µM |
| CCONC(=O)c1cnc(NC(=O)C2CC2)cc1Nc1cc(F)cc(-c2ncc(C)cn2)c1OC [Example 226, 6-(cyclopropylcarboxamido)-N-ethoxy-4-((5-fluoro-2-(methoxy)-3-(5-methylpyrimidin-2-yl)phenyl)amino)nicotinamide] | 0.000538 µM |  | > 10 µM | > 10 µM |  |  |  |

Now from value to compound, other results behind:

| IC50 ([2]; Homo sapiens, U2OS) | IC50 [2] | Compound | IC50 ([1]; Homo sapiens, UT7) | IC50 ([3]; Homo sapiens) | IC50 ([2]; Homo sapiens) | IC50 [1] | IC50 [3] |
| --- | --- | --- | --- | --- | --- | --- | --- |
| 0.000839 µM |  | CCONC(=O)c1cnc(Nc2cc(C)nc(C)n2)cc1Nc1ccc(C)cc1N(C)S(=O)(=O)C1CC1 [Example 175] | > 10 µM | > 10 µM |  |  |  |
| 0.00232 µM |  | CCONC(=O)c1cnc(Nc2ccc(C)nn2)cc1Nc1cc(F)c(C2CC2)cc1N(C)S(C)(=O)=O [Example 176, 4-((4-cyclopropyl-5-fluoro-2-(N-methylmethanesulfonamido)phenyl)amino)-N-ethoxy-6-((6-methylpyridazin-3-yl)amino)nicotinamide] | > 10 µM | > 10 µM |  |  |  |
| 0.0016 µM |  | CCONC(=O)c1cnc(Nc2cc(C)nc(C)n2)cc1Nc1ccc(C#N)cc1N(C)S(C)(=O)=O [Example 177] | > 10 µM | > 10 µM |  |  |  |
| 0.00128 µM |  | CCONC(=O)c1cnc(Nc2cc(C)nc(C)n2)cc1Nc1ccc(OC(C)C)cc1N(C)S(C)(=O)=O [Example 178, 6-((2,6-dimethylpyrimidin-4-yl)amino)-N-ethoxy-4-((4-isopropoxy-2-(N-methylmethanesulfonamido)phenyl)amino)nicotinamide] | > 10 µM | > 10 µM |  |  |  |
| 0.00159 µM |  | C#Cc1cc(N(C)S(C)(=O)=O)c(Nc2cc(Nc3cc(C)nc(C)n3)ncc2C(=O)NOCC)cc1F [Example 182] | > 10 µM | > 10 µM |  |  |  |
| 0.000383 µM |  | CCONC(=O)c1cnc(Nc2cc(C)nc(C)n2)cc1Nc1ccc(C)cc1N(C)S(=O)(=O)CC [Example 203, 6-((2,6-dimethylpyrimidin-4-yl)amino)-N-ethoxy-4-((4-methyl-2-(N-methylethylsulfonamido)phenyl)amino)nicotinamide] | > 10 µM | > 10 µM |  |  |  |
| 0.00108 µM |  | CCONC(=O)c1cnc(Nc2cc(C)nc(C)n2)cc1Nc1ccc(-c2ccnn2C)cc1OC [Example 207] | > 10 µM | > 10 µM |  |  |  |
| 0.00132 µM |  | CCONC(=O)c1cnc(Nc2cccc(C(F)(F)F)n2)cc1Nc1ccc(C2CC2)cc1N(C)S(C)(=O)=O [Example 220, 4-((4-cyclopropyl-2-(N-methylmethanesulfonamido)phenyl)amino)-N-ethoxy-6-((6-(trifluoromethyl)pyridin-2-yl)amino)nicotinamide] | > 10 µM | > 10 µM |  |  |  |
| 0.000172 µM |  | CCONC(=O)c1cnc(Nc2ccc(F)nc2C)cc1Nc1ccc(C2CC2)cc1N(C)S(C)(=O)=O [Example 223, 4-((4-cyclopropyl-2-(N-methylmethanesulfonamido)phenyl)amino)-N-ethoxy-6-((6-fluoro-2-methylpyridin-3-yl)amino)nicotinamide] | > 10 µM | > 10 µM |  |  |  |
| 0.00085 µM |  | CCONC(=O)c1cnc(Nc2ccncn2)cc1Nc1cc(F)c(C(C)C)cc1N(C)S(C)(=O)=O [Example 230, N-ethoxy-4-((5-fluoro-4-isopropyl-2-(N-methylmethanesulfonamido)phenyl)amino)-6-(pyrimidin-4-ylamino)nicotinamide] | > 10 µM | > 10 µM |  |  |  |
